Drawing on BindingDB's records for patent US20250230171 (Moma Therapeutics, 2025), this text covers IC50 for 20 compounds.

The target of the assay is T1, DNA polymerase theta (POLQ) (2-894).
T1 construct: 2-894
The experiment in a line: ATPase Assay. The procedure:
POLθ-mediated ATP hydrolysis was measured using the ADP-Glo Kinase Assay (Promega Corporation, Madison, WI). Reactions were performed in white 384-well small-volume microplates (Greiner Bio-One, Frickenhausen, Germany) using a total volume of 15 μL. The ATPase reaction consisted of 1 nM biotinylated Avi-POLθ[2-894], 5 nM of a 50 nucleotide poly-thymine repeat single-stranded DNA (PolyT(50) ssDNA), and 100 μM ATP in 5 μL of assay buffer (50 mM Tris, pH 7.5, 80 mM KCl, 10 MgCl2, 1 mM DTT, 5% glycerol, 0.01% BSA, 0.01% Tween-20). Inhibition of POLΘATPase activity was determined by preparing 11-point serial dilutions of the test compounds in 100% DMSO, then transferring 30 nL of the compounds into the ATPase reaction using an Echo acoustic liquid handler (Beckman Coulter, Brea, CA). DMSO-treated wells containing either all of the reaction components (1 nM biotinylated Avi-POLθ[2-894], 5 nM PolyT(50) ssDNA, 100 μM ATP) or with assay buffer substituted for the biotinylated Avi-POLθ[2-894](0 nM biotinylated Avi-POLθ[2-894], 5 nM PolyT(50) ssDNA, 100 μM ATP) were used to define the maximum and minimum response in the assay. Following a one-hour incubation at ambient temperature, 5 μL of ADP-Glo Reagent was added to the ATPase reaction, and this mixture was allowed to incubate at ambient temperature for an additional hour. Lastly, 5 μL of Kinase Detection Reagent was added, followed by a third one-hour incubation at ambient temperature. The reagent concentrations listed represent the amounts only in the 5 μL ATPase reaction volume.

A word on the IC50: it is the point on the concentration scale where inhibition reaches its midpoint. A higher IC50 goes with a need for much substance. Turning to `COc1cnc(Cl)cc1-c1cc(C)ncc1C(=O)Nc1nc2c(s1)CN(C(=O)C1CC3(CC(C)C3)C1)C2` (stereo not given) [US20250230171, Compound 418], the IC50 came out at 8 nM.
Compound `COc1cnc(Cl)cc1-c1cc(C)ncc1C(=O)Nc1nc2c(s1)CN(S(=O)(=O)c1ccccn1)C2` [US20250230171, Compound 507] showed an IC50 of 8 nM.
The same measure for `COc1cnc(Cl)cc1-c1cc(C)ncc1C(=O)Nc1nc2c(s1)CN(C(=O)c1ccc(C(F)F)nc1OC)C2` [US20250230171, Compound 384]: 8 nM; for `COc1ccc2oc(C(=O)N3Cc4nc(NC(=O)c5cnc(C)cc5-c5cc(Cl)ncc5OC)sc4C3)nc2c1` [US20250230171, Compound 472]: 8 nM.
Under `COc1cnc(Cl)cc1-c1cc(C)ncc1C(=O)Nc1nc2c(s1)CN(C(=O)c1nc(C)c(C)o1)C2` [US20250230171, Compound 529] stands 8 nM; under `COc1cnc(Cl)cc1-c1cc(C)ncc1C(=O)Nc1nc2c(s1)CN(C(=O)c1nccc(C(F)(F)F)n1)C2` [US20250230171, Compound 431], 8 nM; under `COc1cnc(C(=O)N2Cc3nc(NC(=O)c4cnc(C)cc4-c4cc(Cl)ncc4OC)sc3C2)c(OC)n1` [US20250230171, Compound 440], 8 nM.
Under `COc1cnc(Cl)cc1-c1cc(C)ncc1C(=O)Nc1nc2c(s1)CN(C(=O)c1nc(C)ncc1OC)C2` [US20250230171, Compound 493] stands 8 nM; under `COc1cnc(Cl)cc1-c1cc(C)ncc1C(=O)Nc1nc2c(s1)CN(C(=O)c1nc(C)ncc1Cl)C2` [US20250230171, Compound 479], 8 nM; under `COc1cnc(Cl)cc1-c1cc(C)ncc1C(=O)Nc1nc2c(s1)CN(C(=O)c1cnc(C)c(C)n1)C2` [US20250230171, Compound 416], 8 nM.
In turn, `COc1cnc(Cl)cc1-c1cc(C)ncc1C(=O)Nc1nc2c(s1)CN(C(=O)c1cc(Cl)cnc1OC)C2` [US20250230171, Compound 486] gave an IC50 of 8 nM.
Under `COc1cnc(Cl)cc1-c1cc(C)ncc1C(=O)Nc1nc2c(s1)CN(C(=O)c1nccnc1C)C2` [US20250230171, Compound 520] stands 8 nM; under `COc1cnc(Cl)cc1-c1cc(C)ncc1C(=O)Nc1nc2c(s1)CN(C(=O)c1ccc(C(F)F)c(F)c1)C2` [US20250230171, Compound 403], 8 nM.
Under `COc1ccc(C#N)cc1-c1cc(C)ncc1C(=O)Nc1nc2c(s1)CN(C(=O)c1cc(C(F)F)ccc1F)C2` [US20250230171, Compound 433] stands 8 nM.
The same measure for `COc1cnc(Cl)cc1-c1cc(C)ncc1C(=O)Nc1nc2c(s1)CN(C(=O)c1cc(C)nc(C(F)F)n1)C2` [US20250230171, Compound 530]: 8 nM; for `COc1cnc(Cl)cc1-c1cc(C)ncc1C(=O)Nc1nc2c(s1)CN(C(=O)c1nc(C(F)F)ccc1OC)C2` [US20250230171, Compound 415]: 8 nM.
`COc1cnc(Cl)cc1-c1cc(C)ncc1C(=O)Nc1nc2c(s1)CN(C(=O)c1c(C)ncn1C)C2` [US20250230171, Compound 476] returned an IC50 of 8 nM.
The same measure for `COc1cnc(Cl)cc1-c1cc(C)ncc1C(=O)Nc1nc2c(s1)CN(C(=O)c1ncccc1Cl)C2` [US20250230171, Compound 459]: 8 nM; for `COc1cnc(Cl)cc1-c1cc(C)ncc1C(=O)Nc1nc2c(s1)CN(C(=O)c1cnn(C(F)(F)F)c1)C2` [US20250230171, Compound 513]: 8 nM.
Under `COc1cnc(Cl)cc1-c1cc(C)ncc1C(=O)Nc1nc2c(s1)CN(C(=O)c1cnc(C(F)F)c(Cl)c1)C2` [US20250230171, Compound 445] stands 8 nM.
